Assay results: US20230338454A1, “FORSYTHIA SUSPENSA COMPONENT AND OPTIONAL PANAX GINSENG COMPONENT AND THE APPLICATION” (priority 2020, published 2023)
Read-outs that look alike come from different tables or passages of the source.

Columns and labels:
[1] = system: fever induced by beer yeast; assay: Fever induced by beer yeast in rats; type: in vivo, Wistar rats; details: 10 mg/kg; for Body temperature change (%) (antipyretic percentage), time post-dose 1 h / Body temperature, time post-dose 1 h: 1 h post-dose; for Body temperature change (%) (antipyretic percentage), time post-dose 2 h / Body temperature, time post-dose 2 h: 2 h post-dose; for Body temperature change (%) (antipyretic percentage), time post-dose 3 h / Body temperature, time post-dose 3 h: 3 h post-dose; for Body temperature change (%) (antipyretic percentage), time post-dose 4 h / Body temperature, time post-dose 4 h: 4 h post-dose
[2] = system: mouse splenic lymphocytes; assay: ConA-induced mouse splenic lymphocyte transformation test; type: in vivo, Kunming mice; details: 144 mg/kg; gavage once daily for 30 days; mice; ABSa-ABSb at 570 nm
Procedure: One hundred and fifty-two healthy male mice were subjected to acclimation for 4 days before they were randomly divided into 19 groups: the negative control group, positive control group, forsythin group, 20(R)-ginsenoside Rg3 group, high, middle and low dose groups of panax ginseng-forsythia suspensa composition. […] The drugs were given by gavage, once daily for 30 days, and the negative control group was given the same volume of water. At 1 h after the last dose, the spleens of animals of each group were aseptically excised to prepare splenocyte suspension. After diluting the splenocyte suspension to a concentration of 3×10^6 cells/mL, the splenocyte suspension was divided into 2 aliquots.Each of the aliquot was transferred into two 24-well culture plates at a volume of 1 mL/well followed by addition of 75 µL of ConA solution (a) was added to one well, and the other well was used as control (b). The wells were cultured at 37° C. for 72 h. Then, thiazolyl blue (MTT) was added 4 h before the end of the culture. After incubation, acidic isopropanol was added, and the absorbance (ABS) of each solution was measured at 570 nm after it was mixed well. The proliferativity was calculated using the formula: proliferativity = ABSa-ABSb. Each dose group of the test sample was compared with the negative control group.

parainfluenza virus = type: in vivo, Kunming mice
Coxsackievirus B3 (CVB3) = assay: Effect of drugs on viral cytopathic effect, effective antiviral rate (ER%); type: cell-based; details: Vero cells, 100TCID50, drug at maximum non-toxic concentration, 72 h, MTT
influenza virus = type: in vivo, Kunming mice; details: for Lung index (x̅ ±S) / Lung index Inhibitory rate (%): 13.0 mg/kg/day by gavage, 5 days
[3] = system: Human embryonic lung fibroblast cell strain; assay: Drug toxicity testing (MTT and cytopathic effect methods), maximum non-toxic concentration TD0; details: human embryonic lung fibroblasts
HCMV AD169 strain = assay: Inhibitory effect on HCMV in vitro (MEC, therapeutic index); type: cell-based, human cytomegalovirus; details: HCMV AD169, 100 times TCD50, 10 days of culture
Procedure: Human embryonic lung fibroblast cell strain (purchased from Sino Best Biological Technology Co., Ltd.). The cells were cultured and subcultured according to the conventional method.
HCMV AD169 strain was purchased from American Type Culture Collection (ATCC).
Cells were inoculated in a 96-well plate, allowed to grow into monolayers, and inoculated with a virus challenge of 100 times TCD50. Starting from TD0, each drug was diluted stepwise according to 10-fold gradient to prepare 5 concentrations, with 4 wells set for each concentration. In addition, 4 wells of normal cell control and 4 wells of virus control were set.

[4] = mice infected with parainfluenza virus, 13.0 mg/kg/day by gavage, 5 days
[5] = mice infected with influenza virus

Row | Compound | Body temperature change (%) (antipyretic percentage), time post-dose 1 h [1] | Body temperature, time post-dose 1 h [1] [°C] | Body temperature change (%) (antipyretic percentage), time post-dose 2 h [1] | Body temperature, time post-dose 2 h [1] [°C] | Body temperature change (%) (antipyretic percentage), time post-dose 3 h [1] | Body temperature, time post-dose 3 h [1] [°C] | Body temperature change (%) (antipyretic percentage), time post-dose 4 h [1] | Body temperature, time post-dose 4 h [1] [°C] | Proliferation ability (×10^-2) [2] | Effective Antiviral Rates (ER%) CVB3 (Coxsackievirus B3 (CVB3)) | further results
1 | CC(C)=CCC[C@](C)(O)[C@H]1CC[C@]2(C)[C@@H]1[C@H](O)C[C@@H]1[C@@]3(C)CC[C@H](O[C@@H]4O[C@H](CO)[C@@H](O)[C@H](O)[C@H]4O[C@@H]4O[C@H](CO)[C@@H](O)[C@H](O)[C@H]4O)C(C)(C)[C@@H]3CC[C@]12C [20(R)-Ginsenoside Rg3, 20(R)-ginsenoside Rg3] | -0.3±0.41 | 39.31±0.48 | -0.69±0.93^∗ % | 39.04±0.45 | -1.03±1.18^∗ % | 38.91±0.40 | -1.55±1.23^∗ % | 38.70±0.31 | 23.9±11.70 ×10^-2 | 53.75% | Lung index (x̅ ±S) (parainfluenza virus; [4]): 1.357±0.050; Lung index Inhibitory rate (%) (parainfluenza virus; [4]): 14.69%; Lung index compared with the infection model group, in words (parainfluenza virus; mice infected with parainfluenza virus, P < 0.05 or P < 0.01): decreased significantly; Lung index (x̅ ±S) (influenza virus; […]): 1.302±0.046; Lung index Inhibitory rate (%) (influenza virus; […]): 12.51%; Lung index compared with the infection model group, in words (influenza virus; mouse, in vivo): decreased significantly
2 | COc1ccc([C@H]2OCC3C2CO[C@H]3c2ccc(O[C@@H]3OC(CO)[C@@H](O)[C@H](O)C3O)c(OC)c2)cc1OC (some centres unmarked) [Forsythin] | -0.60±0.39 | 39.13±0.52 | -0.92±0.93^∗∗ % | 38.77±0.42 | -1.29±1.18^∗ % | 38.63±0.40 | -1.70±1.23^∗ % | 38.46±0.31 | 28.66±12.63 ×10^-2 | 75.27^∗∗ % | Lung index (x̅ ±S) (parainfluenza virus; mouse, in vivo, 13 mg/kg/day): 1.335±0.062; Lung index Inhibitory rate (%) (parainfluenza virus; mouse, in vivo, 13 mg/kg/day): 16.10%; Maximum non-toxic concentration TD0 [3]: 40 mg/L; Minimum effective concentration MEC (HCMV AD169 strain): 4 mg/L; Lung index (x̅ ±S) (influenza virus; [5]): 1.280±0.040; Lung index Inhibitory rate (%) (influenza virus; [5]): 14.00%
